Data: the NIST ThermoML archive (doi:10.1016/j.jct.2017.04.007)

Conditions: Liquid; for mass density: Vibrating tube method; for speed of sound: Frequency=3 MHz, Pulse-echo method

CCOC(F)(C(F)(F)C(F)(F)C(F)(F)F)C(F)(C(F)(F)F)C(F)(F)F (centres undefined) [2-trifluoromethyl-3-ethoxydodecafluorohexane]
Conditions | mass density, 333.15 K [kg/m3] | mass density, 343.15 K [kg/m3] | mass density, 353.15 K [kg/m3] | mass density, 363.15 K [kg/m3] | mass density, 373.15 K [kg/m3] | mass density, 383.15 K [kg/m3] | mass density, 393.15 K [kg/m3] | speed of sound, 343.15 K [m/s] | speed of sound, 353.15 K [m/s]
100 kPa | – | 1523.6 | 1501.6 | 1478.1 | 1454.4 | 1430.4 | 1405.6 | 534.8 | 509
10000 kPa | – | 1559.1 | 1540 | 1520.4 | 1500.9 | 1481.2 | 1461.3 | – | –
20000 kPa | – | 1587.8 | 1570.5 | 1553 | 1535.8 | 1518.4 | 1500.9 | 667.7 | 647.6
30000 kPa | – | 1611.9 | 1596 | 1579.9 | 1564.2 | 1548.4 | 1532.5 | – | –
40000 kPa | – | 1633 | 1618 | 1603 | 1588.4 | 1573.8 | 1559 | 765 | 747.5
50000 kPa | – | 1651.7 | 1637.6 | 1623.4 | 1609.6 | 1595.9 | 1581.9 | – | –
60000 kPa | – | 1668.7 | 1655.2 | 1641.7 | 1628.5 | 1615.5 | 1602.2 | 844.9 | 828.9
70000 kPa | – | 1684.2 | 1671.3 | 1658.3 | 1645.8 | 1633.3 | 1620.6 | – | –
80000 kPa | – | 1698.6 | 1686.2 | 1673.6 | 1661.7 | 1649.6 | 1637.1 | 913.5 | 898.5
90000 kPa | – | 1712 | 1700 | 1687.9 | 1676.4 | 1664.6 | 1652.8 | – | –
100000 kPa | – | 1724.4 | 1712.9 | 1701.2 | 1689.9 | 1678.5 | 1667.1 | 974 | 960.3
110000 kPa | – | 1736.5 | 1724.9 | 1713.7 | 1702.8 | 1691.6 | 1680.5 | – | –
120000 kPa | – | 1747.8 | 1736.6 | 1725.3 | 1714.7 | 1704 | 1693.2 | – | –
130000 kPa | 1769.7 | 1758.4 | 1747.4 | 1736.6 | 1726.2 | 1715.7 | 1705.1 | – | –
140000 kPa | 1779.5 | 1768.6 | 1757.8 | 1747.3 | 1737.1 | 1726.8 | 1716.3 | – | –
